# Patent publication US9408393B2, “Bismuth-thiols as antiseptics for agricultural, industrial and other uses” (Microbion Corporation, priority 2010, dated 2016)
# What was measured:
# Enteromorpha spores = assay: Inhibition of algae spore germination; details: up to ten micrograms per ml
# Description: The effect of three bismuth containing compounds, bismuth dimercaprol (BisBAL), bismuth dimercaptotoluene (BisTOL), and bismuth ethanedithiol (BisEDT), on the settlement of algae was determined, particularly the ability of each compound to inhibit germination of Enteromorpha spores. Each compound was tested at 0.001, 0.01, 0.1, 1.0, and 10.0 μg/ml.
# barnacle larvae = assay: Barnacle larvae settlement inhibition
# Description: Compounds, BisBAL and BisTOL were included in an assay to determine the inhibitory activity of each compound on barnacle larvae settlement behavior. Methods were performed according to techniques practiced in the art. […] In another experiment, BisEDT was dissolved either directly in natural seawater or first dissolved in DMSO and then diluted in natural seawater. The EC50 measurements were not statistically different.
# H. marina = assay: MIC against marine bacteria; type: cell-based; details: marine bacterium H. marina
# Description: (§1) This example describes the antimicrobial activity of bismuth containing compounds. The MIC values of three bismuth containing compounds, bismuth dimercaprol (BisBAL), bismuth dimercaptotoluene (BisTOL), and bismuth ethanedithiol (BisEDT), against three different marine bacteria were determined using methods routinely practiced by persons skilled in the art.
# M. hydrocarbonoclasicus = assay: MIC against marine bacteria; type: cell-based; details: marine bacterium M. hydrocarbonoclasicus
# Description: as §1
# V. alginolyticus = assay: MIC against marine bacteria; type: cell-based; details: marine bacterium V. alginolyticus
# Description: as §1
# marine diatom = assay: Marine diatom settlement inhibition; details: 0.1 μg/ml
# Description: The effect of three bismuth containing compounds, bismuth dimercaprol (BisBAL), bismuth dimercaptotoluene (BisTOL), and bismuth ethanedithiol (BisEDT), on growth of a marine diatom was determined according to techniques practiced in the art. Settlement of marine diatoms (diatoms per fov) was inhibited by increasing concentrations of each of the three compounds (0.001, 0.01, 0.1, 1.0, and 10.0 μg/ml). […] 1987; 41:435-64; Domenico et al., Antimicrob Agents and Chemother. 2001; 45(5):1417-21; Halwani et al., Int J Pharm. 2008; 358:278-84; Johnson et al., Clin Infect Dis. 2007; 45(4):409-415. ADA Council on Scientific Affairs. Direct and indirect restorative materials. JADA 2003; 134:463-72. Alliance for Coastal Technologies (ACT). 2004. Biofouling Prevention Technologies for Coastal Sensors/Sensor Platforms. University of Maryland Center of Environmental Science, Workshop Proceedings, November 2003. UMCES Technical Report Series No. TS-426-04-CBL, Solomons, M D. Athanassiadis et al., Aust Dent J 2007; 52:S64-82. Alt et al., Antimicrob Agents Chemother 2004; 48:4084-88. Bayston et al., Biomaterials 2009; 30:3167-73. Bernardo et al., JADA 2007; 138:775-783. Beytha et al., J Dent 2007; 35:201-206. Bohner et al., J Pharm Sci 1997; 86:565-72. Bruxton, Eng News 1908; 59,525; Chem. Abs., 2:2010. Bueno et al. Oral Surg Oral Med Oral Pathol Oral Radiol Endod 2009; 107:e65-9. […]
substance,measurement,setting,value
bismuth dimercaptotoluene [BisTOL],Effect on germination of algae spores,Enteromorpha spores,no inhibitory effect
same,EC50 (concentration at which 50% settlement inhibition occurs),barnacle larvae,15.4 ppm
same,MIC,H. marina,7.2 µg/mL
same,MIC,M. hydrocarbonoclasicus,0.4 µg/mL
same,MIC,V. alginolyticus,1 µg/mL
same,Inhibition of marine diatom settlement,marine diatom,approximately 30%
